Tests used:
[1] = molecular target: GDP-bound KRAS wild-type protein (Homo sapiens, UniProt P01116); assay: Binding to KRAS by surface plasmon resonance (SPR), Single Cycle Kinetics; conditions: SPR, Single Cycle Kinetics, 1:1 binding model; GDP-bound KRAS wild-type protein; read-out: KRAS KD
[2] = molecular target: GDP-bound NRAS wild-type protein (Homo sapiens, UniProt P01111); assay: Binding to NRAS by surface plasmon resonance (SPR), Single Cycle Kinetics; conditions: SPR; GDP-bound NRAS wild-type protein vs GDP-bound KRAS wild-type protein; KD ratio class
[3] = molecular target: GDP-bound HRAS wild-type protein (Homo sapiens, UniProt P01112); assay: Binding to HRAS by surface plasmon resonance (SPR), Single Cycle Kinetics; conditions: SPR; GDP-bound HRAS wild-type protein vs GDP-bound KRAS wild-type protein; KD ratio class
[4] = tested on: human lung cancer strain NCI-H441;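 also: cell proliferation inhibition after four days measured by CellTiter-Glo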

Sequence of GDP-bound HRAS wild-type protein (P01112 whole entry): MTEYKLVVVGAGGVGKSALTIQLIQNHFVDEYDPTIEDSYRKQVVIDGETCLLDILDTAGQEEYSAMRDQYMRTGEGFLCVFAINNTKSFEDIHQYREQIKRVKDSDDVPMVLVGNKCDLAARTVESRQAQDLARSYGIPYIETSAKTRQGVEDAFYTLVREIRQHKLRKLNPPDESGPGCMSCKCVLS
Sequence of GDP-bound KRAS wild-type protein (P01116 whole entry): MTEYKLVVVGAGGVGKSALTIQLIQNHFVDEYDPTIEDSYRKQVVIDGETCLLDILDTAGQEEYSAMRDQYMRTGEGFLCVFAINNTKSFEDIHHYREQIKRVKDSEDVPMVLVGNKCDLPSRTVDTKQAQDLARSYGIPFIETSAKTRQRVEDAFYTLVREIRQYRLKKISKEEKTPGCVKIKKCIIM
Sequence of GDP-bound NRAS wild-type protein (P01111 whole entry): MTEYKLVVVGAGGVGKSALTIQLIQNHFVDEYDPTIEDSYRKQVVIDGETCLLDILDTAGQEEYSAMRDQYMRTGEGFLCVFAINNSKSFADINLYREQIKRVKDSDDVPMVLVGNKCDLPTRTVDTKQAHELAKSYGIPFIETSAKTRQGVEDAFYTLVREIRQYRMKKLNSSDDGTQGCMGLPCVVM

Row | Compound | Kd [1] [nM] | NRAS/KRAS (ratio of KD value for NRAS to KD value for KRAS) [2] | HRAS/KRAS (ratio of KD value for HRAS to KD value for KRAS) [3] | IC50 [4] [nM]
1 | CC[C@H](C)[C@@H]1NC(=O)[C@H](CC)N(C)C(=O)C[C@@H](C(=O)N(C)C)N(C)C(=O)[C@H](C2CCCC2)N(C)C(=O)C2(CCC2)NC(=O)[C@@H]2CCCN2C(=O)[C@H](CCc2cc(F)c(C(F)(F)F)c(F)c2)NC(=O)CN(C)C(=O)[C@H](CC2CCCCC2)N2CC/C=C\C[C@@H](C2=O)N(C)C(=O)CN(C)C1=O [PP1475] | 0.55 | A (a compound having 10 or more and less than 20 is denoted as A) | A (a compound having 10 or more and less than 20 is denoted as A) | 48.9
2 | CCO[C@@H]1C[C@H]2C(=O)NC3(CCC3)C(=O)N(C)[C@@H](C3CCCC3)C(=O)N(C)[C@H](C(=O)N(C)C)CC(=O)N(C)[C@@H](CC3CC3)C(=O)N[C@@H]([C@@H](C)CC)C(=O)N(C)CC(=O)N(C)[C@H]3C/C=C\CCN(C3=O)[C@@H](Cc3ccc(F)cc3C)C(=O)N(C)CC(=O)N[C@@H](CCc3ccc(Cl)c(Cl)c3)C(=O)N2C1 [PP1476] | 1 | A (a compound having 10 or more and less than 20 is denoted as A) | B (a compound having 3 or more and less than 10 is denoted as B) | 216
3 | CCO[C@@H]1C[C@H]2C(=O)NC3(CCC3)C(=O)N(C)[C@@H](C3CCCC3)C(=O)N(C)[C@H](C(=O)N(C)C)CC(=O)N(C)[C@@H](CC3CC3)C(=O)N[C@@H]([C@@H](C)CC)C(=O)N(C)CC(=O)N(C)[C@H]3C/C=C\CCN(C3=O)[C@@H](Cc3ccc(F)cc3C)C(=O)N(C)CC(=O)N[C@@H](CCc3cc(F)c(Cl)c(F)c3)C(=O)N2C1 [PP1477] | 1.4 | A (a compound having 10 or more and less than 20 is denoted as A) | B (a compound having 3 or more and less than 10 is denoted as B) | 309
4 | CCO[C@@H]1C[C@H]2C(=O)NC3(CCC3)C(=O)N(C)[C@@H](C3CCCC3)C(=O)N(C)[C@H](C(=O)N(C)C)CC(=O)N(C)[C@@H](CC3CC3)C(=O)N[C@@H]([C@@H](C)CC)C(=O)N(C)CC(=O)N(C)[C@H]3C/C=C\CCN(C3=O)[C@@H](Cc3ccc(F)cc3)C(=O)N(C)CC(=O)N[C@@H](CCc3ccc(Cl)c(Cl)c3)C(=O)N2C1 [PP1478] | 0.34 | A (a compound having 10 or more and less than 20 is denoted as A) | A (a compound having 10 or more and less than 20 is denoted as A) | 102
5 | CCO[C@@H]1C[C@H]2C(=O)NC3(CCC3)C(=O)N(C)[C@@H](C3CCCC3)C(=O)N(C)[C@H](C(=O)N(C)C)CC(=O)N(C)[C@@H](CC3CC3)C(=O)N[C@@H]([C@@H](C)CC)C(=O)N(C)CC(=O)N(C)[C@H]3C/C=C\CCN(C3=O)[C@@H](Cc3ccc(F)cc3)C(=O)N(C)CC(=O)N[C@@H](CCc3cc(F)c(Cl)c(F)c3)C(=O)N2C1 [PP1479] | 0.49 | A (a compound having 10 or more and less than 20 is denoted as A) | B (a compound having 3 or more and less than 10 is denoted as B) | 140
6 | CCO[C@@H]1C[C@H]2C(=O)NC3(CCC3)C(=O)N(C)[C@@H](C3CCCC3)C(=O)N(C)[C@H](C(=O)N(C)C)CC(=O)N(C)[C@@H](CC(C)C)C(=O)N[C@@H]([C@@H](C)CC)C(=O)N(C)CC(=O)N(C)[C@H]3C/C=C\CCN(C3=O)[C@@H](Cc3ccc(F)cc3C)C(=O)N(C)CC(=O)N[C@@H](CCc3ccc(Cl)c(Cl)c3)C(=O)N2C1 [PP1480] | 0.92 | A (a compound having 10 or more and less than 20 is denoted as A) | B (a compound having 3 or more and less than 10 is denoted as B) | 85.8
7 | CCO[C@@H]1C[C@H]2C(=O)NC3(CCC3)C(=O)N(C)[C@@H](C3CCCC3)C(=O)N(C)[C@H](C(=O)N(C)C)CC(=O)N(C)[C@@H](CC(C)C)C(=O)N[C@@H]([C@@H](C)CC)C(=O)N(C)CC(=O)N(C)[C@H]3C/C=C\CCN(C3=O)[C@@H](Cc3ccc(F)cc3C)C(=O)N(C)CC(=O)N[C@@H](CCc3cc(F)c(Cl)c(F)c3)C(=O)N2C1 [PP1481] | 1.2 | A (a compound having 10 or more and less than 20 is denoted as A) | B (a compound having 3 or more and less than 10 is denoted as B) | 14.8
8 | CCO[C@@H]1C[C@H]2C(=O)NC3(CCC3)C(=O)N(C)[C@@H](C3CCCC3)C(=O)N(C)[C@H](C(=O)N(C)C)CC(=O)N(C)[C@@H](CC(C)C)C(=O)N[C@@H]([C@@H](C)CC)C(=O)N(C)CC(=O)N(C)[C@H]3C/C=C\CCN(C3=O)[C@@H](Cc3ccc(F)cc3)C(=O)N(C)CC(=O)N[C@@H](CCc3ccc(Cl)c(Cl)c3)C(=O)N2C1 [PP1482] | 0.45 | A (a compound having 10 or more and less than 20 is denoted as A) | B (a compound having 3 or more and less than 10 is denoted as B) | 76.4
9 | CCO[C@@H]1C[C@H]2C(=O)NC3(CCC3)C(=O)N(C)[C@@H](C3CCCC3)C(=O)N(C)[C@H](C(=O)N(C)C)CC(=O)N(C)[C@@H](CC(C)C)C(=O)N[C@@H]([C@@H](C)CC)C(=O)N(C)CC(=O)N(C)[C@H]3C/C=C\CCN(C3=O)[C@@H](Cc3ccc(F)cc3)C(=O)N(C)CC(=O)N[C@@H](CCc3cc(F)c(Cl)c(F)c3)C(=O)N2C1 [PP1483] | 0.51 | A (a compound having 10 or more and less than 20 is denoted as A) | B (a compound having 3 or more and less than 10 is denoted as B) | 90.3
10 | CCO[C@@H]1C[C@H]2C(=O)NC3(CCC3)C(=O)N(C)[C@@H](C3CCCC3)C(=O)N(C)[C@H](C(=O)N(C)C)CC(=O)N(C)[C@@H](CC3CC3)C(=O)N[C@@H]([C@@H](C)CC)C(=O)N(C)CC(=O)N(C)[C@H]3C/C=C\CCN(C3=O)[C@@H](Cc3ccc(C)cc3)C(=O)N(C)CC(=O)N[C@@H](CCc3cc(F)c(Cl)c(F)c3)C(=O)N2C1 [PP1484] | 0.45 | A (a compound having 10 or more and less than 20 is denoted as A) | A (a compound having 10 or more and less than 20 is denoted as A) | 59.3
11 | CCO[C@@H]1C[C@H]2C(=O)NC3(CCC3)C(=O)N(C)[C@@H](C3CCCC3)C(=O)N(C)[C@H](C(=O)N(C)C)CC(=O)N(C)[C@@H](CC3CC3)C(=O)N[C@@H]([C@@H](C)CC)C(=O)N(C)CC(=O)N(C)[C@H]3C/C=C\CCN(C3=O)[C@@H](Cc3ccc(C)cc3)C(=O)N(C)CC(=O)N[C@@H](CCc3ccc(Cl)c(Cl)c3)C(=O)N2C1 [PP1485] | 0.28 | A (a compound having 10 or more and less than 20 is denoted as A) | A (a compound having 10 or more and less than 20 is denoted as A) | 30.5
12 | CCO[C@@H]1C[C@H]2C(=O)NC3(CCC3)C(=O)N(C)[C@@H](C3CCCC3)C(=O)N(C)[C@H](C(=O)N(C)C)CC(=O)N(C)[C@@H](CC3CCCC3)C(=O)N[C@@H]([C@@H](C)CC)C(=O)N(C)CC(=O)N(C)[C@H]3C/C=C\CCN(C3=O)[C@@H](Cc3ccc(C)cc3)C(=O)N(C)CC(=O)N[C@@H](CCc3cc(F)c(Cl)c(F)c3)C(=O)N2C1 [PP1486] | 0.46 | A (a compound having 10 or more and less than 20 is denoted as A) | A (a compound having 10 or more and less than 20 is denoted as A) | 15
13 | CCO[C@@H]1C[C@H]2C(=O)NC3(CCC3)C(=O)N(C)[C@@H](C3CCCC3)C(=O)N(C)[C@H](C(=O)N(C)C)CC(=O)N(C)[C@@H](CC3CC3)C(=O)N[C@@H]([C@@H](C)CC)C(=O)N(C)CC(=O)N(C)[C@H]3C/C=C\CCN(C3=O)[C@@H](Cc3ccc(F)cc3)C(=O)N(C)CC(=O)N[C@@H](CCc3cc(F)c(C(F)(F)F)c(F)c3)C(=O)N2C1 [PP1529, (2S,8S,12R,14S,20S,23S,27S,30S,36S,38Z)-20-cyclopentyl-27-(cyclopropylmethyl)-8-[2-[3,5-difluoro-4-(trifluoromethyl)phenyl]ethyl]-12-ethoxy-2-[(4-fluorophenyl)methyl]-N,N,4,19,22,26,32,35-octamethyl-30-[(1S)-1-methylpropyl]-3,6,9,15,18,21,25,28,31,34,42-undecaoxo-spiro[1,4,7,10,16,19,22,26,29,32,35-undecazatricyclo[34.5.1.0^10,14]dotetracont-38-ene-17,1′-cyclobutane]-23-carboxamide] | 0.081 | A (a compound having 10 or more and less than 20 is denoted as A) | B (a compound having 3 or more and less than 10 is denoted as B) | 30.2

From US20240158446A1, “CYCLIC COMPOUND HAVING SELECTIVE INHIBITORY ACTION ON KRAS OVER HRAS AND NRAS” (CHUGAI SEIYAKU KABUSHIKI KAISHA, priority 2021, published 2024)
